Laboratory results reported in patent publication US20240197708A1, “TREATMENT OF PRODROMAL HUNTINGTON DISEASE” (Prilenia Neurotherapeutics Ltd., priority 2021, published 2024).

Experiments:
[1] = tested on: early-stage HD patients; conditions: disclosed in U.S. Pat. Nos. 10,322,119 and 11,207,310; cited from earlier work
[2] = tested on: prodromal HD subjects; conditions: 45 mg bid
Method: The efficacy of pridopidine for treating prodromal HD is evaluated in a randomized, double-blind, placebo-controlled trial.

[3] = CSF and/or plasma, 52 weeks, vs placebo

## CCCN1CCC(c2cccc(S(C)(=O)=O)c2)CC1 [Pridopidine, 4-[3-(methylsulfonyl)phenyl]-1-propyl-piperidine]
[1]
  functional capacity: maintains, improves or lessens the decline of functional capacity
[2]; 52 weeks, vs placebo
  DMN and functional connectivity: maintenance of or less worsening
  PBA-s apathy score: improvement or less worsening compared to placebo
  PBA-s total score: improvement or less worsening compared to placebo
  cognitive assessments by the HD-CAB battery of tests: improves or maintains or show less worsening compared to placebo
  cognitive assessments by the SDMT: improves, maintains or shows less decline
  cortical thickness: no decrease or less decrease compared to placebo
  motor measure Q-Motor finger tapping: maintenance, improvement or less decline compared to placebo
  motor measure TMS: maintenance, improvement or less decline compared to placebo
  total brain volume: no decrease or less decrease compared to placebo
  ventricular volume: decrease or maintenance of ventricular volume or a smaller increase in ventricular volume compared to placebo
  volume of the striatal structures caudate and putamen: no decrease or less decrease compared to placebo
[2]; [3]
  level of fluid biomarker NfL: reduction or maintenance
  level of fluid biomarker phospho-tau: reduction or maintenance
  level of fluid biomarker proenkephalin: reduction or maintenance
[2]; over the course of the trial (52 weeks), vs placebo group
  progression to manifest HD: less participants in the pridopidine group progressed to manifest HD compared to the placebo group
